These results are taken from US20020064770A1, “Binding compounds and methods for identifying binding compounds” (priority 2000, published 2002).

For orientation: Kd means the concentration at which binding is half-saturated.

Assay [1] concerns the target 14-3-3. Conditions: binding domain 14-3-3; cited from earlier work.
Assay [2] concerns CCR5. The assay is described as follows: Binding affinity of identified peptide ligands for CCR5 (displacement of [125I]-MIP-1β). On the set-up: species or system human. The source says: In order to determine those ligands that had the highest affinity to the target receptor, generally, over 200 peptide libraries were screened to determine each library's respective inhibition binding. […] In additional aspects of the invention, once preferred amino acid residues are identified due to high preference values by CCR5 at the degenerate positions of the library, specific peptides are synthesized by the same methods as employed for library synthesis. In one embodiment of the invention, a high preference value is greater than 1. The value is determined by subtracting the control value from the sample value and dividing by the reference value. In a preferred embodiment of the invention, the preference value is greater than 1.2. In a highly preferred embodiment of the invention, the preference value is greater than 2. After synthesis of the identified peptide sequence, the peptide is purified by, for example, High Performance Liquid Chromatography (“HPLC”) and compositions are confirmed by Matrix-Assisted Laser Desorption Ionization-Time of Flight Mass Spectrometer (“MALDI-TOF MS”) and Edman Sequencing. Generally, relative affinities may be measured by modifying the radiolabel binding assay used in receptor purification.
Relative affinities were measured by modifying the radiolabel binding assay used in receptor purification.
For orientation: Displacement assays read how much labelled ligand stays bound in the presence of the test substance.

In assay [3] the test system is M-tropic HIV-1 strains. The settings on record: cited from earlier work.
Assay [4] has as its target T1, CCR5 (Homo sapiens, UniProt P51681). The arrangement: endogenous in cells; host or cells: monocytes. The settings on record: monocytes; cited from earlier work.
Assay [5] has as its target T1, CCR5. On the set-up: endogenous in cells; host or cells: monocytes. The settings on record: cited from earlier work.
Assay [6] deals with R5 HIV-1. Conditions: clinical isolates and a laboratory strain; peripheral blood mononuclear cells; cited from earlier work.
Assay [7] relates to T-cell line-tropic HIV-1. The settings on record: cited from earlier work.
Assay [8] concerns the target T1, CCR5. The settings on record: CCR5-expressing Chinese hamster ovary cells; cited from earlier work.
In assay [9] the target is PDZ. The settings on record: binding domain PDZ; cited from earlier work.
Assay [10] addresses T2, SH2 (src) (Homo sapiens, UniProt P12931).
T2 construct: SH2 (src)
The settings on record: binding domain SH2 (src); cited from earlier work.

In assay [11] the target is CCR5. Conditions: value obtained by Receptor Biology; applicant's membrane preparations comparable; read-out: Kd for MIP1-β binding; cited from earlier work.

T1 sequence (P51681 whole entry): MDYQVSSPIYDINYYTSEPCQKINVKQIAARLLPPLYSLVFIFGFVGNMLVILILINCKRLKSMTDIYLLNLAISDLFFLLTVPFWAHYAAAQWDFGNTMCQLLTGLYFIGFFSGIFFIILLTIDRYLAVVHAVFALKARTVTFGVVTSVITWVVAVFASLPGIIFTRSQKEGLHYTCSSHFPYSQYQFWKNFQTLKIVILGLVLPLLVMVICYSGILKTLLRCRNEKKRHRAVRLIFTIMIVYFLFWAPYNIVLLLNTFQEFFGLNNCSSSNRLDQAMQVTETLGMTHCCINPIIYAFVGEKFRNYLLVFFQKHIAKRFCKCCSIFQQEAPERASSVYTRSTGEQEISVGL

Consider RLSHpSLP, for which the Kd in assay [1] was 55.7 nM.
With “cyclo(M-Y-A-T-R-W-K-N) (MYATRWKN; cyclic)”, the “affinity and action on CCR5” value in assay [2] was “enhanced affinity and action”.
Take Aminooxypentane (AOP)-RANTES[2-68]: in assay [3], the “inhibition of infection of macrophages” value was “potently inhibits”. Besides, in [4], the “antagonist potency on CCR5 function” value is “subnanomolar”.
As to “K-K-K-A-R-S-L-I-W-R-P-A-K-A-K-K-K (KKKARSLIWRPAKAKKK)”, the “affinity and action on CCR5” value in assay [2] is “enhanced affinity and action”.
Turning to `Cc1ccc(-c2ccc3c(c2)C=C(C(=O)Nc2ccc(C[N+](C)(C)C4CCOCC4)cc2)CCC3)cc1.[Cl-]` [TAK-779], in assay [5], the “concentration blocking CCR5-mediated Ca2+ signaling” value is “nanomolar”. In [6], the “concentration inhibiting replication of R5 HIV-1” value was 1.6 to 3.7 nM. The “activity against T-cell line-tropic HIV-1” value in assay [7] was “inactive”. In addition, in assay [8], the “antagonism of RANTES binding to CCR5” value is on record as “antagonizes”.
Consider “M-A-R-S-L-I-W-R-P-A-K-A-K-K-A (MARSLIWRPAKAKKA)”, for which the “affinity and action on CCR5” value in assay [2] is “enhanced affinity and action”.
KKKKETDV: the Kd in assay [9] was 42 nM.
In the case of PYBEIY, the Kd in assay [10] was 100 nM.

B1: MIP-1β: natural CCR5 ligand, used as [125I] radioligand (protein, UniProt P13236 24-92, looked up)
C-C motif chemokine 4: APMGSDPPTACCFSYTARKLPRNFVVDYYETSSLCSQPAVVFQTKRSKQVCADPSESWVQEYVYDLELN
modifications: ends and bridges not checked; also: [125I] radiolabel
For B1, the Kd in assay [11] is less than 1 nM.
